Test results published in PMC3466195, “Potassium Acts as a GTPase-Activating Element on Each Nucleotide-Binding Domain of the Essential Bacillus subtilis EngA” (PLoS ONE, 2012).
Like-named read-outs stand apart in the source and are kept apart here.

How the values were obtained:
[1] = target: T1, B. subtilis EngA (Bacillus subtilis, UniProt P50743); type: biochemical; conditions: for Km / Vmax / kcat: GTP hydrolysis by EngA; for kcat: fitted; for GTPase activity corresponding to 100%: wild-type EngA, 300 mM KCl
T1 construct: full-length EngA (named hereafter as EngA) and its two shortened EngA variants, GD1 and GD2-KH were overexpressed in E. coli; His-tag (from pET15b; purified on Ni-IDA) (N); made in house; host or cells: E. coli C41(DE3)
Procedure: (§1) GTPase activities were determined using a coupled-enzymatic assay containing pyruvate kinase and lactate dehydrogenase as previously described. The proteins (2 µM or 8 µM of EngA in the presence of KCl or NaCl, respectively, and 4 µM for GD1 and 12.5 µM for GD2-KH) and the coupled assay system containing 50 mM Tris/HCl pH 8, 4 mM phosphoenol pyruvate, 0.4 mM NADH, 1 mM MgCl2, 30 µg pyruvate kinase and 15 µg lactate dehydrogenase, were mixed into a quartz cuvette (final volume of 750 µl) in the presence of GTP (up to 1 mM) and salts, either KCl or NaCl, as indicated in the figure legends. When the GTPase and XTPase activities of the wild-type EngA and the single point mutants were studied (Fig. 7), the assay medium (final volume of 500 µl) contained 3 mM MgCl2 and the pyruvate kinase was increased to 120 µg to ensure an immediate conversion of XDP back into XTP. The reaction was started by adding 3.2 µM or 0.8 µM of wild-type EngA or single point mutants in the absence or presence of 300 mM K^+, respectively. GTP or XTP hydrolysis was monitored by following the change in absorbance at 340 nm upon conversion of NADH to NAD^+, for 10 min at 37°C, using either a Hitachi U3350 or a Safas UVmc^2 spectrophotometer. The slope measured (ΔDO/min) was used to calculate the activity of the protein taking into account the εNADH340nm = 6220 l.mol^−1.cm^−1. Control experiments were systematically performed in the absence of nucleotides (protein alone) or in the absence of proteins (nucleotides alone) and the activities measured in all cases were negligible. Between many different EngA preparations, the specific activities measured at 1 mM GTP varied between 100–130 nmoles/min/mg protein.

[2] = target: T2, GD1 (Bacillus subtilis, UniProt P50743); assay: GTP hydrolysis coupled-enzymatic assay; type: biochemical
T2 construct: two shortened EngA variants that only contain GD1 or GD2-KH; His-tag (from pET15b; purified on Ni-IDA) (N); made in house; host or cells: E. coli C41(DE3)
T2 sequence (P50743 4-167 limits assumed): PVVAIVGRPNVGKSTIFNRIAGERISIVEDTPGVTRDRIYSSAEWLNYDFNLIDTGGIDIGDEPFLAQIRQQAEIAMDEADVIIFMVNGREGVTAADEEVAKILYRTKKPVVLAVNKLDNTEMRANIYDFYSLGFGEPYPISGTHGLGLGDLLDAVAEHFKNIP
Procedure: as §1

[3] = target: T3, GD2-KH (Bacillus subtilis, UniProt P50743); assay: GTP hydrolysis coupled-enzymatic assay; type: biochemical; conditions: for GTPase activity: GD2-KH
T3 construct: two shortened EngA variants that only contain GD1 or GD2-KH; His-tag (from pET15b; purified on Ni-IDA) (N); made in house; host or cells: E. coli C41(DE3)
T3 sequence (P50743 173-436): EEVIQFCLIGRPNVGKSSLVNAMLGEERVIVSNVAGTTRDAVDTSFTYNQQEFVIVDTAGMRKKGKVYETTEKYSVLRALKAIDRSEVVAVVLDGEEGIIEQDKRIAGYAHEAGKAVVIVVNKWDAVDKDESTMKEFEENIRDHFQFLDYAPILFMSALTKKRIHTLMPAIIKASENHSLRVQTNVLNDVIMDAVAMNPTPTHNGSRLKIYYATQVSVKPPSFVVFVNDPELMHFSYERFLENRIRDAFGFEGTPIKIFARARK
Procedure: as §1

[4] = tested on: T. maritima EngA; conditions: cited from earlier work
[5] = target: T4, B. subtilis EngA (Bacillus subtilis, UniProt P50743); assay: Nucleotide binding monitored by intrinsic tryptophan fluorescence
T4 construct: full-length EngA (named hereafter as EngA) and its two shortened EngA variants, GD1 and GD2-KH were overexpressed in E. coli; His-tag (from pET15b; purified on Ni-IDA) (N); made in house; host or cells: E. coli C41(DE3)
T4 sequence (P50743 1-436): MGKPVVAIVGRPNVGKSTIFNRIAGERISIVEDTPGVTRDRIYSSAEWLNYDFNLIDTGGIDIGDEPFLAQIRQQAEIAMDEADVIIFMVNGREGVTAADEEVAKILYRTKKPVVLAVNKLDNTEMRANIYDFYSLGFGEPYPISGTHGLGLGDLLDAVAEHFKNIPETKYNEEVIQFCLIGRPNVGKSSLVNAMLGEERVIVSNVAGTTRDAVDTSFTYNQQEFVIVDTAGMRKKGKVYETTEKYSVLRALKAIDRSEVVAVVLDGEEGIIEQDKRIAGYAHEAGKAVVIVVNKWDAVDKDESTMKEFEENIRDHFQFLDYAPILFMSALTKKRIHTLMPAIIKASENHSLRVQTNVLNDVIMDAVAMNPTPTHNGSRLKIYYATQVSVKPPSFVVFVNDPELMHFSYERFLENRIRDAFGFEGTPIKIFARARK
Procedure: (§2) Fluorescence measurements were performed essentially as described previously for the unmodified nucleotides or the N-methylanthraniloyl-GDP (MANT-GDP) analogue using a PTI QuantaMaster 4 spectrofluorimeter, [62]. Dissociation constants (K D) for nucleotides were calculated by monitoring intrinsic tryptophan fluorescence variation using 295 nm excitation wavelength, with a slit width of 2 nm, and scanning emission fluorescence between 310 and 400 nm (for the unmodified nucleotide) or 400 and 500 nm (for MANT-GDP), with a slit width of 4 nm. For the intrinsic tryptophan fluorescence, inner filter effect was corrected using N-Acetyltryptophanamide (NATA) as a reference. 1 µM NATA or 0.5 µM of YphC were mixed with 50 mM Tris/HCl pH 8, 2 mM MgCl2, NaCl or KCl and increasing amount of nucleotide (GDP, GMPPNP or MANT-GDP), as indicated in the figure legends. The fluorescence was normalized respective to the integrated value of the fluorescence peak obtained in the absence of unmodified nucleotide (between 310 and 400 nm) or MANT-GDP (between 400 and 500 nm). The data were fitted using the GraFit 5.0.11 software with the following equation: [drawing 1] where F is the relative fluorescence intensity in the presence of nucleotide, F min is the relative fluorescence in the absence of nucleotide, F max is the fluorescence intensity at saturating concentration of nucleotide, L is the nucleotide concentration, E is the protein concentration and K D is the dissociation constant of the protein-nucleotide complex.

[6] = target: T5, GD1 (shortened B. subtilis EngA variant) (Bacillus subtilis, UniProt P50743); assay: as above
T5 construct: two shortened EngA variants that only contain GD1 or GD2-KH; His-tag (from pET15b; purified on Ni-IDA) (N); made in house; host or cells: E. coli C41(DE3)
Procedure: as §2

[7] = target: T6, GD2-KH (shortened B. subtilis EngA variant) (Bacillus subtilis, UniProt P50743); assay: as above
T6 construct: two shortened EngA variants that only contain GD1 or GD2-KH; His-tag (from pET15b; purified on Ni-IDA) (N); made in house; host or cells: E. coli C41(DE3)
Procedure: as §2

[8] = target: T7, EngA (Bacillus subtilis, UniProt P50743); assay: Fluorescence-based Thermal Shift Assay (TSA); type: binding; conditions: EngA with 1 mM nucleotide; no effector Tm 41.5
T7 construct: full-length EngA (named hereafter as EngA) and its two shortened EngA variants, GD1 and GD2-KH were overexpressed in E. coli; His-tag (from pET15b; purified on Ni-IDA) (N); made in house; host or cells: E. coli C41(DE3)
T7 sequence (P50743 1-436): T4 sequence (P50743 1-436)
Procedure: (§3) Assays were performed into a 96-well thin-wall PCR plate (BioRad) using an IQ5 96-well format real-time PCR instrument (Bio-Rad) over a temperature range from 20°C to 90°C with temperature increments of 0.2°C [64]. Assay samples (23 µl) contained 50 mM Tris/HCl pH 8, 0.5 mg/ml of EngA or 1.5 mg/ml of GD1 or GD2-KH, and concentration of salt and/or nucleotides as indicated, and 2 µl of SYPRO Orange solution (Molecular Probes, Eugene, OR, 500x in DMSO diluted 5 times in water) was added. The plates were heated and changes in fluorescence for the environmentally sensitive dye SYPRO Orange were monitored through a charge-coupled device (CCD) camera. The melting temperature (Tm) values for each protein were determined graphically from the fluorescence first derivative of the melting curves. The wavelengths for excitation and emission were 470 nm and 570 nm, respectively.

[9] = target: T2, GD1; assay: Fluorescence-based Thermal Shift Assay (TSA); type: binding; conditions: for Tm: GD1 with 1 mM nucleotide, no effector Tm 51
Procedure: as §3

[10] = target: T3, GD2-KH; assay: Fluorescence-based Thermal Shift Assay (TSA); type: binding; conditions: for Tm: GD2-KH with 1 mM nucleotide, no effector Tm 42.8
Procedure: as §3

[11] = tested on: E. coli EngA; set-up: method as in PMID 16963571; conditions: cited from earlier work
[12] = tested on: M. smegmatis EngA; set-up: method as in PMID 22506030; conditions: cited from earlier work
[13] = target: S. typhimurium EngA; set-up: method as in PMID 17905831; conditions: cited from earlier work
[14] = target: T4, B. subtilis EngA; assay: Fluorescence resonance energy transfer between tryptophan residues and MANT moiety; type: binding; conditions: FRET Trp to MANT
Procedure: as §2, with “1 µM NATA or 0.5 µM of YphC were mixed with 50 mM Tris/HCl pH 8, 2 mM MgCl2, NaCl or KCl and increasing amount of nucleotide (GDP, GMPPNP or MANT-GDP), as indicated in the figure legends.” left out

[K+] [K^+, potassium]
increase in catalytic efficiency of EngA ([1]; 300 mM K+ vs absence of K+): 20 fold
stimulation of the GTPase activity of EngA ([1]; 1 M KCl, 1 mM GTP): ~15 fold
GTPase activity ([1]; EngA, 0.4 M KCl): ~5 min⁻¹
K+ concentration giving maximal GTPase activity ([2]; GD1): 500 mM
GTPase activity ([2]; GD1, 1M KCl): ~3.4 min⁻¹
GTPase activity ([3]; 1M KCl): ~0.45 min⁻¹
increase of GTPase activity upon K+ binding ([3]; GD2 domain): ~100 fold
GTPase activity ([4]; 0.4 M KCl): 0.11 min⁻¹
stimulation of GTPase activity by K+ ([4]; T. maritima EngA): about 4 fold

Nc1nc2c(ncn2[C@@H]2O[C@H](COP(=O)(O)OP(=O)(O)NP(=O)(O)O)[C@@H](O)[C@H]2O)c(=O)[nH]1 [GMPPNP]
Kd ([5]; 300 mM KCl, read-out: KD): 18.8 ± 2.8 µM
Kd ([5]; 300 mM NaCl, read-out: KD): 16.5 ± 3.7 µM
Kd ([5]; no salt (absence of K+), 2 mM MgCl2, 25°C, read-out: KD): 25.7 ± 2.8 µM
Kd ([6]; GD1, 300 mM KCl): 35.7 ± 4.9 µM
Kd ([6]; GD1, 300 mM NaCl): 17.8 ± 2.4 µM
Kd ([7]; 300 mM KCl): 6.8 ± 2 µM
Kd ([7]; 300 mM NaCl): 15.2 ± 1.3 µM
Tm [8]: 48.8 °C
Tm [9]: 55.5 °C
Tm [10]: 48.3 °C

[Na+] [sodium]
effect of salt on the GTPase activity of EngA ([1]; K+ replaced by other monovalent cation, 1 mM GTP): no effect

Nc1nc2c(ncn2[C@@H]2O[C@H](COP(=O)(O)OP(=O)(O)OP(=O)(O)O)[C@@H](O)[C@H]2O)c(=O)[nH]1 [GTP]
specific activity ([1]; 1 mM GTP, different EngA preparations): 100–130 nmoles/min/mg protein
GTPase activity (kcat) ([1]; EngA, absence of K+): 0.005 to 0.0083 s⁻¹
Km ([1]; 300 mM K+): 153 µM
Vmax ([1]; 300 mM K+): 144.5±3.4 nmol/min/mg protein
kcat ([1]; 300 mM K+): ~0.123 s⁻¹
Vmax ([1]; absence of K+): 6.1±0.2 nmol/min/mg protein
Km ([1]; no K+): 111 µM
kcat ([1]; no K+): ~0.005 s⁻¹
GTPase activity corresponding to 100% ([1]; 200 µM nucleotide): 77 µmol GTP hydrolyzed/min/mg proteins
GTPase activity corresponding to 100% ([1]; 1 mM GTP): 100 µmol GTP hydrolyzed/min/mg proteins
GTPase activity ([2]; GD1, absence of K+): ~0.6 min⁻¹
GTPase activity ([3]; absence of K+): 0.004 min⁻¹
kcat ([4]; 400 mM K+): 0.0145 s⁻¹
Km ([4]; GTP, T. maritima EngA): 110 µM
kcat ([11]; 400 mM K+): 0.0193 s⁻¹
Km ([11]; GTP, E. coli EngA): 143 µM
Km ([12]; GTP, M. smegmatis EngA): 39 µM
kcat ([12]; absence of K+): 8.3e-05 s⁻¹
Kd ([13]; higher-affinity site (proposed GD1)): ~12 µM
Kd ([13]; lower-affinity site (proposed GD2)): > 100 µM

Nc1nc2c(ncn2[C@@H]2O[C@H](COP(=O)(O)OP(=O)(O)O)[C@@H](O)[C@H]2O)c(=O)[nH]1 [GDP]
Kd ([5]; KD, 300 mM KCl): 16.3 ± 2.3 µM
Kd ([5]; KD, 300 mM NaCl): 12.8 ± 2.9 µM
Kd ([5]; KD, no salt (absence of K+), 2 mM MgCl2, 25°C): 8 ± 1 µM
Kd ([6]; GD1, 300 mM KCl): 4.5 ± 0.9 µM
Kd ([6]; GD1, 300 mM NaCl): 2.7 ± 0.4 µM
Kd ([7]; 300 mM KCl): 2.9 ± 0.8 µM
Kd ([7]; 300 mM NaCl): 1.6 ± 0.2 µM
Tm [8]: 59.4 °C
Tm [9]: 64 °C
ΔTm at 1000 µM ([9]; pH 8, read-out: Tm increase): ~13 °C
Tm [10]: 55.8 °C
ΔTm at 1000 µM ([10]; pH 8, read-out: Tm increase): ~13 °C
Kd ([13]; both G-domains): 1 to 3 µM

CNc1ccccc1C(=O)O[C@H]1[C@@H](O)[C@H](n2cnc3c(=O)[nH]c(N)nc32)O[C@@H]1COP(=O)(O)OP(=O)(O)O [mant-GDP, N-methylanthraniloyl-GDP]
Kd ([14]; 300 mM KCl): 2.9 ± 0.2 µM
Kd ([14]; no salt): 3.1 ± 0.2 µM
